Assay results taken from patent US20240343733A1, “COMPOUNDS FOR TARGETING DEGRADATION OF IRAK4 PROTEINS” (BIOGEN MA INC., priority 2021, published 2024).

These compounds were tested against T1, IRAK4 (Homo sapiens, UniProt Q9NWZ3) (assay: IRAK4 Degradation Assay, HiBiT Method). Details: 293T cells expressing HiBiT-tagged IRAK4, 6 hours.
T1 construct: 293Tcells expressing HiBiT-tagged IRAK4 were then added into 384-well plates
T1 sequence (Q9NWZ3 1-460): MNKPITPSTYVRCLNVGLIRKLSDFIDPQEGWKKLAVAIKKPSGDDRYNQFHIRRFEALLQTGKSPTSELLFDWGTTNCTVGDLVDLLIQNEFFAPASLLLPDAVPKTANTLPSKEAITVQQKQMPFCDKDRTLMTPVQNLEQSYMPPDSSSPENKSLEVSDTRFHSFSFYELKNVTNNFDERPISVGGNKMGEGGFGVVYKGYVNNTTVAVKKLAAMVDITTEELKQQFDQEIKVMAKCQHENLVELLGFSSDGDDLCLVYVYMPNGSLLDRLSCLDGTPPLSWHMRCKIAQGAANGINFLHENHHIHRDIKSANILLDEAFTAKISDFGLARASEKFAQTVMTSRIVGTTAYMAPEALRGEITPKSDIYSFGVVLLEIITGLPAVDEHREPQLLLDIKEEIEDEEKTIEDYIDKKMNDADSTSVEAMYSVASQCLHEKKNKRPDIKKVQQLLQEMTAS
Format: cell-based
Procedure, shortened: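 293T cells with HiBiT knocked in at the C-terminus of endogenous IRAK4, 10,000 per well, treated 6 h at 37 °C with an 11-point half-log series ([…]), in duplicate. Remaining IRAK4 read by Nano-Glo HiBiT lytic luminescence against DMSO-only and media-only controls.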

| DC50 [nM] | SMILES |
| --- | --- |
| < 10 | CC(C)Oc1cc2nc([C@H]3CC[C@H](CN(C)C4CCN(c5ccc(C6CCC(=O)NC6=O)cc5)CC4)CC3)cn2cc1C(=O)Nc1cccc(C(F)F)n1 (stereo partly shown) [Example 30, N-[6-(difluoromethyl)-2-pyridyl]-2-[4-[[[1-[4-(2,6-dioxo-3-piperidyl)phenyl]-4-piperidyl]-methyl-amino]methyl]cyclohexyl]-7-isopropoxy-imidazo[1,2-a]pyridine-6-carboxamide] |
| < 10 | CC(C)Oc1cc2nn([C@H]3CC[C@H](CN4CCC(c5ccc(OC6CCC(=O)NC6=O)cc5)CC4)CC3)cc2cc1C(=O)Nc1cccn([C@H]2C[C@H]2F)c1=O (stereo partly drawn) [Example 141, 2-((1r,4S)-4-((4-(4-((2,6-dioxopiperidin-3-yl)oxy)phenyl)piperidin-1-yl)methyl)cyclohexyl)-N-(1-((1S,2R)-2-fluorocyclopropyl)-2-oxo-1,2-dihydropyridin-3-yl)-6-isopropoxy-2H-indazole-5-carboxamide] |
| 10 to 100 | CC(C)Oc1cc2nc([C@H]3CC[C@H](CN4CCC(c5ccc(NC6CCC(=O)NC6=O)cc5F)CC4)CC3)cn2cc1C(=O)Nc1cccc(C(F)F)n1 (stereo partly shown) [Example 18, N-[6-(difluoromethyl)-2-pyridyl]-2-[4-[[4-[4-[(2,6-dioxo-3-piperidyl)amino]-2-fluoro-phenyl]-1-piperidyl]methyl]cyclohexyl]-7-isopropoxy-imidazo[1,2-a]pyridine-6-carboxamide] |
| 10 to 100 | CC(C)Oc1cc2nn(C3CCN(C(=O)CC4CCN(c5ncc(C6CCC(=O)NC6=O)cc5F)CC4)CC3)cc2cc1C(=O)Nc1cnn2cccnc12 (stereo not shown) [Example 148, 2-(1-(2-(1-(5-(2,6-dioxopiperidin-3-yl)-3-fluoropyridin-2-yl)piperidin-4-yl)acetyl)piperidin-4-yl)-6-isopropoxy-N-(pyrazolo[1,5-a]pyrimidin-3-yl)-2H-indazole-5-carboxamide] |
| < 10 | CC(C)Oc1cc2nn([C@H]3CC[C@H](CN[C@@H]4CC[C@H](c5ccc6c(N7CCC(=O)NC7=O)nn(C)c6c5)[C@H](O)C4)CC3)cc2cc1C(=O)Nc1cccn([C@H]2C[C@H]2F)c1=O [Example 138, 2-((1R,4S)-4-((((1R,3R,4R)-4-(3-(2,4-dioxotetrahydropyrimidin-1(2H)-yl)-1-methyl-1H-indazol-6-yl)-3-hydroxycyclohexyl)amino)methyl)cyclohexyl)-N-(1-((1S,2R)-2-fluorocyclopropyl)-2-oxo-1,2-dihydropyridin-3-yl)-6-isopropoxy-2H-indazole-5-carboxamide] |
| 10 to 100 | CC(C)Oc1cc2nc(C3CCN(CC(=O)N4CCC(c5ccc(C6CCC(=O)NC6=O)cc5)CC4)CC3)cn2cc1C(=O)Nc1cccc(C(F)F)n1 (stereo not shown) [Example 99, N-[6-(difluoromethyl)-2-pyridyl]-2-[1-[2-[4-[4-(2,6-dioxo-3-piperidyl)phenyl]-1-piperidyl]-2-oxo-ethyl]-4-piperidyl]-7-isopropoxy-imidazo[1,2-a]pyridine-6-carboxamide] |
| 100 to 500 | CC(C)Oc1cc2nc([C@H]3CC[C@H](CN4CCC(c5ccc(C6(F)CCC(=O)NC6=O)cc5)CC4)CC3)cn2cc1C(=O)Nc1cccc(C(F)F)n1 (stereo partly shown) [Example 45, N-[6-(difluoromethyl)-2-pyridyl]-2-[4-[[4-[4-(3-fluoro-2,6-dioxo-3-piperidyl)phenyl]-1-piperidyl]methyl]cyclohexyl]-7-isopropoxy-imidazo[1,2-a]pyridine-6-carboxamide] |
| 10 to 100 | CC(C)Oc1cc2nc(C3CCN(C(=O)CN4CCC(c5cnc(NC6CCC(=O)NC6=O)nc5)CC4)CC3)cn2cc1C(=O)Nc1cccc(C(F)F)n1 (stereo not shown) [Example 85, N-[6-(difluoromethyl)-2-pyridyl]-2-[1-[2-[4-[2-[(2,6-dioxo-3-piperidyl)amino]pyrimidin-5-yl]-1-piperidyl]acetyl]-4-piperidyl]-7-isopropoxy-imidazo[1,2-a]pyridine-6-carboxamide] |
| 500 to 1000 | CC(C)Oc1cc2nc([C@H]3CC[C@H](CN4CCC(c5ccc(C6CCC(=O)NC6=O)cc5)CC4)CC3)cn2cc1C(=O)Nc1cccc(C(F)(F)F)n1 (stereo partly shown) [Example 4, 2-[4-[[4-[4-(2,6-dioxo-3-piperidyl)phenyl]-1-piperidyl]methyl]cyclohexyl]-7-isopropoxy-N-[6-(trifluoromethyl)-2-pyridyl]imidazo[1,2-a]pyridine-6-carboxamide] |
| 10 to 100 | CC(C)Oc1cc2nc(C3CCN(C(=O)CN4CCC(c5ccc(C6(F)CCC(=O)NC6=O)cc5)CC4)CC3)cn2cc1C(=O)Nc1cccc(C(F)F)n1 (stereo not shown) [Example 88, N-[6-(difluoromethyl)-2-pyridyl]-2-[1-[2-[4-[4-(3-fluoro-2,6-dioxo-3-piperidyl)phenyl]-1-piperidyl]acetyl]-4-piperidyl]-7-isopropoxy-imidazo[1,2-a]pyridine-6-carboxamide] |
| 10 to 100 | CC(C)Oc1cc2nn(C3CCN(C(=O)N(C)C4CCN(c5ncc(C6CCC(=O)NC6=O)cc5F)CC4)CC3)cc2cc1C(=O)Nc1cccn([C@H]2C[C@H]2F)c1=O (stereo partly drawn) [Example 155, 2-(1-((1-(5-(2,6-dioxopiperidin-3-yl)-3-fluoropyridin-2-yl)piperidin-4-yl)(methyl)carbamoyl)piperidin-4-yl)-N-(1-((1S,2R)-2-fluorocyclopropyl)-2-oxo-1,2-dihydropyridin-3-yl)-6-isopropoxy-2H-indazole-5-carboxamide] |
| 10 to 100 | CC(C)Oc1cc2nn(C3CCN(C(=O)CN4CCC(c5ccc(C6CCC(=O)NC6=O)cc5F)CC4)CC3)cc2cc1C(=O)Nc1cccc(C(F)F)n1 (stereo not shown) [Example 63, N-(6-(difluoromethyl)pyridin-2-yl)-2-(1-(2-(4-(4-(2,6-dioxopiperidin-3-yl)-2-fluorophenyl)piperidin-1-yl)acetyl)piperidin-4-yl)-6-isopropoxy-2H-indazole-5-carboxamide] |
| < 10 | CC(C)Oc1cc2nn(C3CCN(C(=O)NC4CCN(c5ncc(C6CCC(=O)NC6=O)cc5F)CC4)CC3)cc2cc1C(=O)Nc1cccn([C@H]2C[C@H]2F)c1=O (stereo partly drawn) [Example 154, 2-(1-((1-(5-(2,6-dioxopiperidin-3-yl)-3-fluoropyridin-2-yl)piperidin-4-yl)carbamoyl)piperidin-4-yl)-N-(1-((1S,2R)-2-fluorocyclopropyl)-2-oxo-1,2-dihydropyridin-3-yl)-6-isopropoxy-2H-indazole-5-carboxamide] |
| < 10 | CC(C)Oc1cc2nc([C@H]3CC[C@H](CN4CCC(c5ccc6c(c5)n(C)c(=O)n6C5CCC(=O)NC5=O)CC4)CC3)cn2cc1C(=O)Nc1cccc(C(F)F)n1 (stereo partly shown) [Example 19, N-[6-(difluoromethyl)-2-pyridyl]-2-[4-[[4-[1-(2,6-dioxo-3-piperidyl)-3-methyl-2-oxo-benzimidazol-5-yl]-1-piperidyl]methyl]cyclohexyl]-7-isopropoxy-imidazo[1,2-a]pyridine-6-carboxamide] |
| 10 to 100 | CC(C)Oc1cc2nn(C3CCN(C(=O)CC4(O)CCN(c5ccc(NC6CCC(=O)NC6=O)cc5)CC4)CC3)cc2cc1C(=O)Nc1cccc(C(F)(F)F)n1 (stereo not shown) [Example 58, 2-[1-[2-[1-[4-[(2,6-dioxo-3-piperidyl)amino]phenyl]-4-hydroxy-4-piperidyl]acetyl]-4-piperidyl]-6-isopropoxy-N-[6-(trifluoromethyl)-2-pyridyl]indazole-5-carboxamide] |
| 10 to 100 | CC(C)Oc1cc2nc([C@H]3CC[C@H](CN4CCC(c5cccc(NC6CCC(=O)NC6=O)c5F)CC4)CC3)cn2cc1C(=O)Nc1cccc(C(F)F)n1 (stereo partly shown) [Example 22, N-[6-(difluoromethyl)-2-pyridyl]-2-[4-[[4-[3-[(2,6-dioxo-3-piperidyl)amino]-2-fluoro-phenyl]-1-piperidyl]methyl]cyclohexyl]-7-isopropoxy-imidazo[1,2-a]pyridine-6-carboxamide] |
| 10 to 100 | Cc1cn(C2CCC(=O)NC2=O)c2ccc(C3CCN(C[C@H]4CC[C@H](c5cn6cc(C(=O)Nc7cccc(C(F)F)n7)c(OC(C)C)cc6n5)CC4)CC3)cc12 (stereo partly shown) [Example 44, N-[6-(difluoromethyl)-2-pyridyl]-2-[4-[[4-[1-(2,6-dioxo-3-piperidyl)-3-methyl-indol-5-yl]-1-piperidyl]methyl]cyclohexyl]-7-isopropoxy-imidazo[1,2-a]pyridine-6-carboxamide] |
| 10 to 100 | CC(C)Oc1cc2nc([C@H]3CC[C@H](CN4CCC(c5ccc6c(c5)n(C)c(=O)n6C5CCC(=O)NC5=O)C(F)(F)C4)CC3)cn2cc1C(=O)Nc1cccn([C@H]2C[C@H]2F)c1=O (stereo partly drawn) [Example 168, 2-((1r,4S)-4-((4-(1-(2,6-dioxopiperidin-3-yl)-3-methyl-2-oxo-2,3-dihydro-1H-benzo[d]imidazol-5-yl)-3,3-difluoropiperidin-1-yl)methyl)cyclohexyl)-N-(1-((1S,2R)-2-fluorocyclopropyl)-2-oxo-1,2-dihydropyridin-3-yl)-7-isopropoxyimidazo[1,2-a]pyridine-6-carboxamide] |
| 100 to 500 | CC(C)Oc1cc2nc(C3CCC(CN4CCC(c5ccc(NC6CCC(=O)NC6=O)cc5F)CC4)CC3)cn2cc1C(=O)Nc1cccc(C(F)(F)F)n1 (stereo not shown) [Example 1, 2-[4-[[4-[4-[(2,6-dioxo-3-piperidyl)amino]-2-fluoro-phenyl]-1-piperidyl]methyl]cyclohexyl]-7-isopropoxy-N-[6-(trifluoromethyl)-2-pyridyl]imidazo[1,2-a]pyridine-6-carboxamide] |
